Experimental data as given in paper PMC12670160, “A drug-repurposing screen of FDA- and EMA-approved drugs identifies two NF-κB inhibitors active against eumycetoma” (Journal of Antimicrobial Chemotherapy, 2025).
Values after ≈ are worked out from the molar mass of the structure shown. Like-named read-outs stand apart in the source and are kept apart here.

Assays:
[1] = system: M. mycetomatis MM55-infected G. mellonella larvae; assay: Therapeutic efficacy in M. mycetomatis-infected G. mellonella larvae (survival, log-rank); format: in vivo, Galleria mellonella
Experimental: (§1) For in vivo experiments, sixth-week instar G. mellonella larvae were purchased from Blue-Lagoon, Maassluis, The Netherlands. The larvae were raised and kept in the dark at room temperature. Larvae without any discoloration and weighing around 500 mg were selected for experiments.
The wet weight was determined and 10 mL of PBS per gram of mycelia was added. The suspension was then sonicated for 2 min to achieve a particle size of 10 µm. The fungal suspension (4 mg/40 µL) was injected into the last left pro-leg of a healthy G. mellonella larva with an insulin 29G U-100 needle to reach a final inoculum of 4 mg/larva. Larvae were placed in Petri dishes containing Whatman paper in a 37°C incubator.
A control group was also included in which M. mycetomatis-infected larvae were treated with PBS or with 1 mg/kg amphotericin B (Fungizone, Bristol Myers Squibb, Utrecht, The Netherlands). […] The treatment was repeated at 28 h post infection and 52 h post infection via different prolegs. The infection was monitored for 10 days.
To compare the survival rates between PBS treatment control and the different experimental groups a log-rank test was performed. All data were processed and performed in GraphPad Prism 10.

M. mycetomatis [2] = assay: In vitro susceptibility, averages over M. mycetomatis isolates (average metabolic activity at 2 µM, mean MIC); format: cell-based; conditions: Madurella mycetomatis, 96 h, 4 days at 37°C, CellTiter-Glo, average of 3 isolates, 20% or below = inhibition
Experimental: M. mycetomatis isolate MM55 was used to screen the Oncode library. This strain was kindly provided by Prof. […] The three M. mycetomatis isolates were identified by ITS sequencing and maintained at −80°C at Erasmus MC. Prior to in vitro screening, isolates were cultured on Sabouraud agar plates (BD, Erembodegem, Belgium) at 37°C.
The Oncode Drug Repurposing library was based on the drug repurposing library from the Drug Repurposing Hub of the Broad Institute and recreated by the Oncode institute.[13] […] Each well of the 384-well plates contained 0.6 µL of a 200 µM stock concentration of compound, resulting in a final concentration of 2 µM when the fungus was added. […] Furthermore, this concentration could also be reached in the G. mellonella larvae.[8],[11] The prepared 384-well plates were transferred on dry ice to the Erasmus MC and stored at −80°C until they were screened.
Each plate also contained a growth control (60 µL of M. mycetomatis hyphal suspension, plus 0.6 µL of DMSO) and a negative control (60 µL of culture medium, plus 0.6 µL of DMSO). Plates were then incubated for 4 days at 37°C, after which 30 µL of CellTiter-Glo 3D Cell Viability reagent was added to every well.[19] After 25 min of incubation at room temperature, the luminescence was measured with a CytoFluor Series 4000 luminometer (PerSeptive Biosystems, Framingham, MA, USA). To determine the metabolic activity, the following formula was used:
Percentagemetabolicactivity=(Absorbancetestluminensence−AbsorbanceNCluminensence/AbsorbanceGCluminensence−AbsorbanceNCluminensence)×100
where, GC is growth control and NC is negative control. The luminescence measured for the GC is considered as 100% metabolic activity. The luminescence for the NC is considered as 0% metabolic activity.

[3] = system: M. mycetomatis strain mm55; assay: IC50 and MIC determination, CellTiter-Glo, strain mm55; format: cell-based, Madurella mycetomatis; conditions: for IC50: concentration inhibiting 50% of fungal hyphae growth; for MIC: concentration with complete growth inhibition
M. mycetomatis strain P1 = assay: IC50 and MIC determination, CellTiter-Glo, strain P1; format: cell-based, Madurella mycetomatis
M. mycetomatis strain I1 = assay: IC50 and MIC determination, CellTiter-Glo, strain I1; format: cell-based, Madurella mycetomatis
M. mycetomatis [4] = assay: In vitro susceptibility, averages over M. mycetomatis isolates (average metabolic activity at 2 µM, mean MIC); format: cell-based, Madurella mycetomatis
M. mycetomatis [5] = system: M. mycetomatis; design: method as in PMID 35398930, PMID 15793113, PMID 36005544, PMID 34181477, PMID 22964246; conditions: against M. mycetomatis; cited from earlier work
[6] = system: healthy uninfected G. mellonella larvae
Experimental: as §1
To determine the toxicity, 15 healthy uninfected larvae were injected with 20 µL of 20 µM compound as previously described.[16] […] As a control, a separate group of larvae were injected with 20 µL of PBS. Larvae were housed in Petri dishes with Whatman paper at 37°C in the dark. Survival was monitored for 10 days.

[7] = 20 µL of 20 µM injected, 10 day observation, toxic if more than 20% of larvae died
[8] = 20 µL of 10 µM at 4, 28 and 52 h post infection, 10 days
[9] = 20 µL of 20 µM at 4, 28 and 52 h post infection, 10 days

Row | Molecule | activity at 2 µM (M. mycetomatis [2]) [%] | IC50 ([3]; Madurella mycetomatis) [µM] | MIC ([3]; Madurella mycetomatis) [µM] | IC50 (M. mycetomatis strain P1; Madurella mycetomatis, P1) [µM] | MIC (M. mycetomatis strain P1; Madurella mycetomatis, P1) [µM] | IC50 (M. mycetomatis strain I1; Madurella mycetomatis, I1) [µM] | MIC (M. mycetomatis strain I1; Madurella mycetomatis, I1) [µM] | further results
1 | C[C@@H]1[C@H](O)[C@@H](C)/C=C/C=C/C=C/C=C/C=C/C=C/C=C/[C@H](O[C@@H]2O[C@H](C)[C@@H](O)[C@H](N)[C@@H]2O)C[C@@H]2O[C@](O)(C[C@@H](O)C[C@@H](O)[C@H](O)CC[C@@H](O)C[C@@H](O)CC(=O)O[C@H]1C)C[C@H](O)[C@H]2C(=O)O [amphotericin B] | – | – | – | – | – | – | – | Survival of M. mycetomatis-infected larvae versus PBS ([1]; 1 mg/kg amphotericin B, infected treated control): prolonged the survival
2 | N#C/C(=C1/SCC(c2ccccc2Cl)S1)n1ccnc1 (stereo not shown) [Lanoconazole] | 3 | 0.04 | 0.06 (≈ 0.0192 µg/mL) | < 0.03 | 0.03 (≈ 0.0096 µg/mL) | < 0.03 | 0.03 (≈ 0.0096 µg/mL) | MIC (M. mycetomatis [4]; Madurella mycetomatis, mean/average over strains MM55, P1 and I1): < 0.03 µM; MIC50 (M. mycetomatis [5]): 2 ng/mL (≈ 6.25 nM)
3 | Bleomycin | – | – | – | – | – | – | – | IC50 [3]: 0.21 µM; MIC [3]: 0.50 µM; IC50 (M. mycetomatis strain P1; strain P1): < 0.03 µM; MIC (M. mycetomatis strain P1; strain P1): 0.03 µM; IC50 (M. mycetomatis strain I1; strain I1): 0.2 µM; MIC (M. mycetomatis strain I1; strain I1): 0.25 µM; Toxicity in G. mellonella larvae at concentrations as low as 0.5 µM ([6]; tested at 20, 10, 5, 1 and 0.5 µM, 10 day observation): toxic; Average metabolic activity at 2 µM (%) (M. mycetomatis [4]; 2 µM, 4 days at 37°C, CellTiter-Glo, average of 3 isolates, 20% or below = inhibition): 1.6%
4 | C/C(=N\NC(=S)N1CCC1)c1ccccn1 [nsc319726] | 4.1 | 1.61 | 2 (≈ 0.469 µg/mL) | 0.74 | 2 (≈ 0.469 µg/mL) | 1.04 | 2 (≈ 0.469 µg/mL) | Toxicity in G. mellonella larvae at 20 µM [6, 7]: toxicity was noted; Survival of M. mycetomatis-infected larvae versus PBS [1, 8]: No prolonged survival
5 | Cc1ccc2c(Br)cc(Br)c(OC(=O)c3ccccc3)c2n1 [Broxaldine] | 4.8 | 1.25 | 2 (≈ 0.842 µg/mL) | 0.63 | 1 (≈ 0.421 µg/mL) | 1.31 | 2 (≈ 0.842 µg/mL) | Toxicity in G. mellonella larvae at 20 µM ([6]; in vivo): not toxic; Survival of M. mycetomatis-infected larvae versus PBS [1, 9]: No prolonged survival
6 | Clc1ccc(C(Cn2ccnc2)OCc2ccsc2Cl)c(Cl)c1 (stereo not shown) [Tioconazole] | 3.2 | 1.24 | 2 (≈ 0.775 µg/mL) | 0.39 | 0.5 (≈ 0.194 µg/mL) | 0.33 | 0.5 (≈ 0.194 µg/mL) | –
7 | Clc1ccccc1C(c1ccccc1)(c1ccccc1)n1ccnc1 [Clotrimazole] | 4 | – | 1 (≈ 0.345 µg/mL) | – | 1 (≈ 0.345 µg/mL) | – | 0.5 (≈ 0.172 µg/mL) | –
8 | Oc1c(Br)cc(Br)c2cccnc12 [Broxyquinoline] | 3.3 | 1.6 | 2 (≈ 0.606 µg/mL) | 0.56 | 2 (≈ 0.606 µg/mL) | 1.29 | 2 (≈ 0.606 µg/mL) | Toxicity in G. mellonella larvae at 20 µM ([6]; in vivo): not toxic; Survival of M. mycetomatis-infected larvae versus PBS [1, 9]: No prolonged survival
9 | CC(C)(C)c1cc(C=C(C#N)C#N)cc(C(C)(C)C)c1O [Tyrphostin 9] | 1.5 | 1.36 | 2 (≈ 0.565 µg/mL) | 1.22 | 2 (≈ 0.565 µg/mL) | 0.78 | 1 (≈ 0.282 µg/mL) | Toxicity in G. mellonella larvae at 20 µM [6, 7]: toxicity was noted; Survival of M. mycetomatis-infected larvae versus PBS [1, 8]: Decreased survival
10 | C=CCOC(Cn1ccnc1)c1ccc(Cl)cc1Cl (stereo not shown) [Enilconazole sulphate] | 1.3 | 1.25 | 2 | 0.56 | 1 | 0.42 | 0.5 | –
11 | Clc1ccc(COC(Cn2ccnc2)c2ccc(Cl)cc2Cl)c(Cl)c1 (stereo not shown) [Miconazole nitrate] | 1 | – | 1 | – | 0.5 | – | 0.06 | –
